Laboratory results: patent US20190247361A1, “OXYTOCIN ANTAGONIST DOSING REGIMENS FOR PROMOTING EMBRYO IMPLANTATION AND PREVENTING MISCARRIAGE” (ObsEva S.A., priority 2016, published 2019)

Test system: subjects undergoing embryo transfer therapy
Test: Phase 2 clinical study: pregnancy and live birth after embryo transfer
Format: in vivo, human
Excerpt: A total of 247 female subjects were selected for treatment based on a variety of inclusion criteria. Of these, 244 subjects completed the study. The study was open to healthy female volunteers from 18 to 36 years of age that had previously undergone up to one IVF or ICSI cycle that resulting in a negative pregnancy test as assessed by hCG detection, despite the transfer of at least one embryo of good quality, which was defined as an embryo having from six to eight blastomeres of uniform size and shape on the day of embryo transfer, ooplasm having no granularity, absence of multinucleation, and a maximum fragmentation of 10%. Subjects included in the study had at least one functional ovary and were capable of communicating with the investigator and research staff and complying with the requirements of the study protocol. Data are presented in the form of mean (standard deviation).
Subjects included in the study underwent an initial screening period beginning up to 12 weeks prior to the day of oocyte retrieval from the subject. During this 12-week period, subjects underwent physical and gynecological examination in preparation for oocyte retrieval. This analysis included a recordation of the subjects' vital signs, hematology and biochemistry analysis of blood samples withdrawn from the subjects, urinary analysis, and a comprehensive review of the subjects' medical histories.
At the conclusion of the screening period, subjects underwent controlled ovarian hyperstimulation by administration of a GnRH antagonist so as to prevent a premature rise in serum LH concentration. Concurrent pre-treatment with an oral contraceptive prior to controlled ovarian hyperstimulation was allowed, but not required. Final follicular maturation was performed with a single administration of hCG to the subject. Luteal support was performed by intravaginal administration of micronized natural progesterone at a dose of 600 mg (3×200 mg dosage forms) daily, commencing within 6-24 hours of oocyte retrieval. Progesterone administration continued for at least 6 weeks following embryo transfer for subjects testing positive for pregnancy at 14 days following embryo transfer. Retrieved oocytes contained at least 1-4 mature oocytes (i.e., ova), which were subsequently used for IVF or ICSI for embryo generation.
The embryo transfer procedure was conducted three days after the oocyte retrieval day (OPU+3 days). Subjects undergoing embryo transfer were monitored prior to initiating the procedure. This analysis included a recordation of vital signs, as well as a transvaginal ultrasound to assess uterine contraction rate and endometrial thickness. […] Eligible subjects subsequently underwent blood sample analysis to determine pre-treatment levels of serum E2 and P4.
From one to two embryos of good quality were transferred to each subject. To reduce uterine contractions at the time of embryo transfer, soft or ultra-soft catheters were used and contact with the uterine fundus was avoided. Any difficulties that occurred during the embryo transfer procedure were recorded, including instances in which uterine sounding or cervical dilation were required, instances in which a harder catheter was required, or instances in which blood was found in any part of the catheter.
Approximately 1 hour following embryo transfer, subjects underwent a final physical examination and were subsequently discharged from the clinical unit until the first follow-up visit, which occurred at about 14 days following oocyte retrieval (OPU+14 days). At this time, subjects underwent a physical examination as well as a blood sample analysis to assess pregnancy by detection of hCG. Subjects testing positive for pregnancy continued the study and were scheduled for follow-up examinations at about 6 weeks following embryo transfer and at about 10 weeks following oocyte retrieval (OPU+10 weeks). Subjects that returned for examination at about 6 weeks following embryo transfer underwent ultrasound analysis. […]

[1] = All P4 quartiles, 1 embryo transferred, 100 mg dose
[2] = All P4 quartiles, 1 embryo transferred, 300 mg dose
[3] = All P4 quartiles, 1 embryo transferred, 900 mg dose
[4] = All P4 quartiles, 1 embryo transferred, All doses
[5] = All P4 quartiles, 2 embryos transferred, 100 mg dose
[6] = All P4 quartiles, 2 embryos transferred, 300 mg dose
[7] = All P4 quartiles, 2 embryos transferred, 900 mg dose
[8] = All P4 quartiles, 2 embryos transferred, All doses
[9] = Excluding upper P4 quartile, 1 embryo transferred, 100 mg dose
[10] = Excluding upper P4 quartile, 1 embryo transferred, 300 mg dose
[11] = Excluding upper P4 quartile, 1 embryo transferred, 900 mg dose
[12] = Excluding upper P4 quartile, 1 embryo transferred, All doses
[13] = Excluding upper P4 quartile, 2 embryos transferred, 100 mg dose
[14] = Excluding upper P4 quartile, 2 embryos transferred, 300 mg dose
[15] = Excluding upper P4 quartile, 2 embryos transferred, 900 mg dose
[16] = Excluding upper P4 quartile, 2 embryos transferred, All doses
[17] = excluding subjects from pre-treatment serum P4 concentration Q4, 100 mg dose
[18] = excluding subjects from pre-treatment serum P4 concentration Q4, 300 mg dose
[19] = excluding subjects from pre-treatment serum P4 concentration Q4, 900 mg dose
[20] = excluding subjects from pre-treatment serum P4 concentration Q4, All doses

## CO/N=C1/C[C@@H](CO)N(C(=O)c2ccc(-c3ccccc3C)cc2)C1 [Compound (II), (3Z,5S)-5-(hydroxymethyl)-1-[(2′-methyl-1,1′-biphenyl-4-yl)carbonyl]pyrrolidin-3-one O-methyloxime]
[1]
  Live birth rate at a gestational age of at least 24 weeks: (33.33%)
  Live birth rate at a gestational age of at least 24 weeks, Frequency: 13/39
[2]
  Live birth rate at a gestational age of at least 24 weeks: (33.33%)
  Live birth rate at a gestational age of at least 24 weeks, Frequency: 12/36
[3]
  Live birth rate at a gestational age of at least 24 weeks: (40.00%)
  Live birth rate at a gestational age of at least 24 weeks, Frequency: 14/35
[4]
  Live birth rate at a gestational age of at least 24 weeks: (35.45%)
  Live birth rate at a gestational age of at least 24 weeks, Frequency: 39/110
[5]
  Live birth rate at a gestational age of at least 24 weeks: (52.17%)
  Live birth rate at a gestational age of at least 24 weeks, Frequency: 12/23
[6]
  Live birth rate at a gestational age of at least 24 weeks: (37.50%)
  Live birth rate at a gestational age of at least 24 weeks, Frequency: 9/24
[7]
  Live birth rate at a gestational age of at least 24 weeks: (50.00%)
  Live birth rate at a gestational age of at least 24 weeks, Frequency: 12/24
[8]
  Live birth rate at a gestational age of at least 24 weeks: (46.48%)
  Live birth rate at a gestational age of at least 24 weeks, Frequency: 33/71
[9]
  Live birth rate at a gestational age of at least 24 weeks: (32.35%)
  Live birth rate at a gestational age of at least 24 weeks, Frequency: 11/34
[10]
  Live birth rate at a gestational age of at least 24 weeks: (45.45%)
  Live birth rate at a gestational age of at least 24 weeks, Frequency: 10/22
[11]
  Live birth rate at a gestational age of at least 24 weeks: (44.83%)
  Live birth rate at a gestational age of at least 24 weeks, Frequency: 13/29
[12]
  Live birth rate at a gestational age of at least 24 weeks: (40.00%)
  Live birth rate at a gestational age of at least 24 weeks, Frequency: 34/85
[13]
  Live birth rate at a gestational age of at least 24 weeks: (50.00%)
  Live birth rate at a gestational age of at least 24 weeks, Frequency: 8/16
[14]
  Live birth rate at a gestational age of at least 24 weeks: (53.85%)
  Live birth rate at a gestational age of at least 24 weeks, Frequency: 7/13
[15]
  Live birth rate at a gestational age of at least 24 weeks: (60.00%)
  Live birth rate at a gestational age of at least 24 weeks, Frequency: 12/20
[16]
  Live birth rate at a gestational age of at least 24 weeks: (55.10%)
  Live birth rate at a gestational age of at least 24 weeks, Frequency: 27/49
All subjects, 100 mg dose
  Live birth rate at gestational age of at least 24 weeks: 40.3%
  Ongoing pregnancy rate at 6 weeks post embryo transfer: 46.8%
  Ongoing pregnancy rate at 10 weeks post oocyte retrieval: 43.5%
  Positive pregnancy test at 14 days post embryo transfer: 56.5%
All subjects, 300 mg dose
  Live birth rate at gestational age of at least 24 weeks: 35.0%
  Ongoing pregnancy rate at 6 weeks post embryo transfer: 35.0%
  Ongoing pregnancy rate at 10 weeks post oocyte retrieval: 35.0%
  Positive pregnancy test at 14 days post embryo transfer: 50.0%
All subjects, 900 mg dose
  Live birth rate at gestational age of at least 24 weeks: 43.3%
  Ongoing pregnancy rate at 6 weeks post embryo transfer: 46.7%
  Ongoing pregnancy rate at 10 weeks post oocyte retrieval: 45.0%
  Positive pregnancy test at 14 days post embryo transfer: 53.3%
All subjects, All doses
  Live birth rate at gestational age of at least 24 weeks: 39.6%
  Ongoing pregnancy rate at 6 weeks post embryo transfer: 42.9%
  Ongoing pregnancy rate at 10 weeks post oocyte retrieval: 41.2%
[17]
  Absolute increase in live birth rate vs placebo: 7.4%
  Live birth rate at gestational age of at least 24 weeks: 38.0%
  Live birth rate at gestational age of at least 24 weeks, frequency: 19/50;
  Ongoing pregnancy rate at 6 weeks post embryo transfer: 44.0%
  Ongoing pregnancy rate at 10 weeks post oocyte retrieval: 42.0%
  Positive pregnancy test at 14 days post embryo transfer: 54.0%
[18]
  Absolute increase in live birth rate vs placebo: 18.0%
  Live birth rate at gestational age of at least 24 weeks: 48.6%
  Live birth rate at gestational age of at least 24 weeks, frequency: 17/35;
  Ongoing pregnancy rate at 6 weeks post embryo transfer: 48.6%
  Ongoing pregnancy rate at 10 weeks post oocyte retrieval: 48.6%
  Positive pregnancy test at 14 days post embryo transfer: 62.9%
[19]
  Absolute increase in live birth rate vs placebo: 20.4%
  Live birth rate at gestational age of at least 24 weeks: 51.0%
  Live birth rate at gestational age of at least 24 weeks, frequency: 25/49;
  Ongoing pregnancy rate at 6 weeks post embryo transfer: 53.1%
  Ongoing pregnancy rate at 10 weeks post oocyte retrieval: 51.0%
  Positive pregnancy test at 14 days post embryo transfer: 59.2%
[20]
  Absolute increase in live birth rate vs placebo: 14.9%
  Live birth rate at gestational age of at least 24 weeks: 45.5%
  Live birth rate at gestational age of at least 24 weeks, frequency: 61/134;
  Ongoing pregnancy rate at 6 weeks post embryo transfer: 48.5%
  Ongoing pregnancy rate at 10 weeks post oocyte retrieval: 47.0%
